Key:
human GST-DYRK1A = molecular target: T1, human GST-DYRK1A (Homo sapiens, UniProt Q13627); assay: GST-DYRK1A enzyme inhibition, ADP-Glo kinase assay; format: biochemical; conditions: ATP 10 μM, GST-DYRK1A full length, read-out: DYRK1 IC50
T1 construct: purified human GST-DYRK1A (full length, Thermo Scientifics) enzyme; purchased Thermo Scientifics
Method: (§1) To evaluate an inhibitory activity of the compound according to the present invention against LRRK2, LRRK2 (G2019S), DYRK1, CLK1, and TTK kinases, experiments were performed as follows.
(§2) Each of the Example compounds was reacted with a purified human GST-DYRK1A (full length, Thermo Scientifics) enzyme to evaluate an ability to inhibit an enzyme using a method as described below. A composition of 40 mM Tris-HCl (pH 7.4), 20 mM MgCl2, 0.5 mg/mL BSA, and 50 μM DTT was used as a reaction buffer, and all reactions of test substances were performed in the reaction buffer. In the test, purified ATP (10 μM) and a specific substrate solution were reacted with a human GST-DYRK1A (full length, 10 ng) enzyme at 25° C. for an hour, and the enzyme activities were then determined using an in vitro ADP-Glo™ kinase assay (Promega). An enzyme-activity reaction solution, an ADP-Glo reaction solution, and an enzyme-ability detection solution were reacted at a ratio of 2:2:1 to measure a degree of inhibition of the enzyme activity with luminescence. The degree of inhibition of the enzyme activity according to the treatment concentration of each of the compounds was calculated based on the fluorescence of the enzyme activity of the solvent control which was not treated with the compound. In this case, the concentration of each of the compounds inhibiting 50% of the enzyme activity was determined to be an IC50 (nM) value, and the IC50 (nM) value of each of the compounds was determined from 3 sets of data, and calculated using Prism (Version 5.01; GraphPad) software.

human GST-CLK1 = molecular target: T2, human GST-CLK1 (Homo sapiens, UniProt P49759); assay: GST-CLK1 enzyme inhibition, ADP-Glo kinase assay; format: biochemical; conditions: ATP 10 μM, GST-CLK1 129-end
T2 construct: purified human GST-CLK1 (129-end, SignalChem) enzyme; purchased SignalChem
T2 sequence (P49759 129-484 limits assumed): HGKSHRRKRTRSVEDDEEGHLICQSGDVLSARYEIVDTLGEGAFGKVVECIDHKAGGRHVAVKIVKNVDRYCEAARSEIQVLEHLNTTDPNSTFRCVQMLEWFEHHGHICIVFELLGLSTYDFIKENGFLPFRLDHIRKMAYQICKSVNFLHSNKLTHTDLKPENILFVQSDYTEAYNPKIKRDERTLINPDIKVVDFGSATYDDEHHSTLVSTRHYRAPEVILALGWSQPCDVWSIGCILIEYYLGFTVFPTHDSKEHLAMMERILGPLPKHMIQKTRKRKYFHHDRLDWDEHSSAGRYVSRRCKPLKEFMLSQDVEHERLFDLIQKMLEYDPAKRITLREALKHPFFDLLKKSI
Method: as §1
as §2, with “GST-CLK1 (129-end, SignalChem)” for “GST-DYRK1A (full length, Thermo Scientifics)”, “GST-CLK1 (129-end, 3” for “GST-DYRK1A (full length, 10”, “value. The” for “value, and the”

With `CC[C@@H](C)Nc1nc(Nc2ccc(S(=O)(=O)N3CCC(N4CCOCC4)CC3)cc2OC)nc2[nH]ccc12` [Example 15, (R)-N^4-(sec-butyl)-N^2-(2-methoxy-4-((4-morpholinopiperidin-1-yl)sulfonyl)phenyl)-7H-pyrrolo[2,3-d]pyrimidine-2,4-diamine] the IC50 (human GST-DYRK1A) was 301 to 1000 nM and the IC50 (human GST-CLK1) was 301 to 1000 nM.

For `CC[C@@H](C)Nc1nc(Nc2ccc(S(C)(=O)=O)cc2OC)nc2[nH]ccc12` [Example 16, (R)-N^4-(sec-butyl)-N^2-(2-methoxy-4-(4-methylsulfonyl)phenyl)-7H-pyrrolo[2,3-d]pyrimidine-2,4-diamine], the IC50 (human GST-DYRK1A) was 301 to 1000 nM and the IC50 (human GST-CLK1) was 301 to 1000 nM.

In the case of `CC[C@H](C)Nc1nc(Nc2ccc(S(=O)(=O)N3CCC(N4CCOCC4)CC3)cc2OC)nc2[nH]ccc12` [Example 17, (S)-N^4-(sec-butyl)-N^2-(2-methoxy-4-((4-morpholinopiperidin-1-yl)sulfonyl)phenyl)-7H-pyrrolo[2,3-d]pyrimidine-2,4-diamine], the IC50 (human GST-DYRK1A) is reported as 301 to 1000 nM and the IC50 (human GST-CLK1) is reported as 301 to 1000 nM.

`CC[C@H](C)Nc1nc(Nc2ccc(S(C)(=O)=O)cc2OC)nc2[nH]ccc12` [Example 18, (S)-N^4-(sec-butyl)-N^2-(2-methoxy-4-(4-methylsulfonyl)phenyl)-7H-pyrrolo[2,3-d]pyrimidine-2,4-diamine] gave an IC50 (human GST-DYRK1A) of 301 to 1000 nM and an IC50 (human GST-CLK1) of 301 to 1000 nM.

With `COc1cc(S(C)(=O)=O)ccc1Nc1nc(N[C@@H]2CCOC2)c2cc[nH]c2n1` [Example 28, (R)-N^2-(2-methoxy-4-(methylsulfonyl)phenyl)-N^4-(tetrahydrofuran-3-yl)-7H-pyrrolo[2,3-d]pyrimidine-2,4-diamine] the IC50 (human GST-DYRK1A) was 301 to 1000 nM and the IC50 (human GST-CLK1) was 301 to 1000 nM.

Compound `COc1cc(S(=O)(=O)N2CCC(N3CCOCC3)CC2)ccc1Nc1nc(N[C@H]2CCOC2)c2cc[nH]c2n1` [Example 29, (S)-N^2-(2-methoxy-4-((4-morpholinopiperidin-1-yl)sulfonyl)phenyl)-N^4-(tetrahydrofuran-3-yl)-7H-pyrrolo[2,3-d]pyrimidine-2,4-diamine] has an IC50 (human GST-DYRK1A) of 301 to 1000 nM and an IC50 (human GST-CLK1) of 301 to 1000 nM.

`O=C(c1ccc(Nc2nc(N[C@@H]3CCOC3)c3cc[nH]c3n2)c2c1OCCO2)N1CCOCC1` [Example 50, (R)-morpholino(8-((4-((tetrahydrofuran-3-yl)amino)-7H-pyrrolo[2,3-d]pyrimidin-2-yl)amino)-2,3-dihydrobenzo[b][1,4]dioxin-5-yl)methanone] gave an IC50 (human GST-DYRK1A) of 301 to 1000 nM and an IC50 (human GST-CLK1) of 301 to 1000 nM.

`O=C(c1ccc(Nc2nc(N[C@H]3CCOC3)c3cc[nH]c3n2)c2c1OCCO2)N1CCOCC1` [Example 51, (S)-morpholino(8-((4-((tetrahydrofuran-3-yl)amino)-7H-pyrrolo[2,3-d]pyrimidin-2-yl)amino)-2,3-dihydrobenzo[b][1,4]dioxin-5-yl)methanone] was tested, and the IC50 (human GST-DYRK1A) was 301 to 1000 nM and the IC50 (human GST-CLK1) was 301 to 1000 nM.

With `CC[C@H](C)Nc1nc(Nc2ccc(S(C)(=O)=O)cc2OC)nc2[nH]cc(C#N)c12` [Example 102, (S)-4-(sec-butylamino)-2-((2-methoxy-4-(methylsulfonyl)phenyl)amino)-7H-pyrrolo[2,3-d]pyrimidine-5-carbonitrile] the IC50 (human GST-DYRK1A) was 301 to 1000 nM and the IC50 (human GST-CLK1) was 301 to 1000 nM.

For `COc1cc(S(C)(=O)=O)ccc1Nc1nc(N[C@H]2CCOC2)c2c(C#N)c[nH]c2n1` [Example 108, (S)-2-((2-methoxy-4-(methylsulfonyl)phenyl)amino)-4-((tetrahydrofuran-3-yl)amino)-7H-pyrrolo[2,3-d]pyrimidine-5-carbonitrile], the IC50 (human GST-DYRK1A) was 301 to 1000 nM and the IC50 (human GST-CLK1) was < 100 nM.

`COc1cc(P(C)(C)=O)ccc1Nc1nc(NC(C)C)c2c(C#N)c[nH]c2n1` [Example 114, 2-((4-(dimethylphosphoryl)-2-methoxyphenyl)amino)-4-(isopropylamino)-7H-pyrrolo[2,3-d]pyrimidine-5-carbonitrile] showed an IC50 (human GST-DYRK1A) of 301 to 1000 nM and an IC50 (human GST-CLK1) of 301 to 1000 nM.

With `COCCNc1nc(Nc2ccc(P(C)(C)=O)cc2OC)nc2[nH]cc(C#N)c12` [Example 115, 2-((4-(dimethylphosphoryl)-2-methoxyphenyl)amino)-4-((2-methoxyethyl)amino)-7H-pyrrolo[2,3-d]pyrimidine-5-carbonitrile] the IC50 (human GST-DYRK1A) was 301 to 1000 nM and the IC50 (human GST-CLK1) was < 100 nM.

In the case of `COc1cc(P(C)(C)=O)ccc1Nc1nc(NC2CC2)c2c(C#N)c[nH]c2n1` [Example 116, 4-(cyclopropylamino)-2-((4-(dimethylphosphoryl)-2-methoxyphenyl)amino)-7H-pyrrolo[2,3-d]pyrimidine-5-carbonitrile], the IC50 (human GST-DYRK1A) is reported as 301 to 1000 nM and the IC50 (human GST-CLK1) is reported as < 100 nM.

For `N#Cc1c[nH]c2nc(Nc3ccc(C(=O)N4CCOCC4)c4c3OCCO4)nc(N[C@@H]3CCOC3)c12` [Example 127, (R)-2-((8-(morpholine-4-carbonyl)-2,3-dihydrobenzo[b][1,4]dioxin-5-yl)amino)-4-((tetrahydrofuran-3-yl)amino)-7H-pyrrolo[2,3-d]pyrimidine-5-carbonitrile], the IC50 (human GST-DYRK1A) was 301 to 1000 nM and the IC50 (human GST-CLK1) was < 100 nM.

For `N#Cc1c[nH]c2nc(Nc3ccc(C(=O)N4CCOCC4)c4c3OCCO4)nc(N[C@H]3CCOC3)c12` [Example 128, (S)-2-((8-(morpholine-4-carbonyl)-2,3-dihydrobenzo[b][1,4]dioxin-5-yl)amino)-4-((tetrahydrofuran-3-yl)amino)-7H-pyrrolo[2,3-d]pyrimidine-5-carbonitrile], the IC50 (human GST-DYRK1A) was 301 to 1000 nM and the IC50 (human GST-CLK1) was 101 to 300 nM.

`N#Cc1c[nH]c2nc(Nc3ccc(C(=O)N4CCOCC4)c4c3OCCO4)nc(NC3CCOCC3)c12` [Example 129, 2-((8-(morpholine-4-carbonyl)-2,3-dihydrobenzo[b][1,4]dioxin-5-yl)amino)-4-((tetrahydro-2H-pyran-4-yl)amino)-7H-pyrrolo[2,3-d]pyrimidine-5-carbonitrile] showed an IC50 (human GST-DYRK1A) of 301 to 1000 nM and an IC50 (human GST-CLK1) of 301 to 1000 nM.

In the case of `CC(C)CNc1nc(Nc2ccc(C(=O)N3CCC(N4CCOCC4)CC3)c3c2OCCO3)nc2[nH]cc(C#N)c12` [Example 139, 4-(isobutylamino)-2-((8-(4-morpholinopiperidine-1-carbonyl)-2,3-dihydrobenzo[b][1,4]dioxin-5-yl)amino)-7H-pyrrolo[2,3-d]pyrimidine-5-carbonitrile], the IC50 (human GST-DYRK1A) is reported as 301 to 1000 nM and the IC50 (human GST-CLK1) is reported as < 100 nM.

With `N#Cc1c[nH]c2nc(Nc3ccc(C(=O)N4CCC(N5CCOCC5)CC4)c4c3OCCO4)nc(NC3CCCCC3)c12` [Example 142, 4-(cyclohexylamino)-2-((8-(4-morpholinopiperidine-1-carbonyl)-2,3-dihydrobenzo[b][1,4]dioxin-5-yl)amino)-7H-pyrrolo[2,3-d]pyrimidine-5-carbonitrile] the IC50 (human GST-DYRK1A) was 301 to 1000 nM and the IC50 (human GST-CLK1) was < 100 nM.

Work on `CNc1nc(Nc2ccc(P3(=O)CCN(C4COC4)CC3)cc2OC)nc2[nH]cc(C#N)c12` [Example 154, 2-((2-methoxy-4-(1-(oxetan-3-yl)-4-oxido-1,4-azaphosphinan-4-yl)phenyl)amino)-4-(methylamino)-7H-pyrrolo[2,3-d]pyrimidine-5-carbonitrile] yielded an IC50 (human GST-DYRK1A) of 301 to 1000 nM and an IC50 (human GST-CLK1) of 301 to 1000 nM.

`COc1cc(S(C)(=O)=O)ccc1Nc1nc(NCC(C)C)c2c(C(F)(F)F)c[nH]c2n1` [Example 180, N^4-isobutyl-N^2-(2-methoxy-4-(methylsulfonyl)phenyl)-5-(trifluoromethyl)-7H-pyrrolo[2,3-d]pyrimidine-2,4-diamine] was tested, and the IC50 (human GST-DYRK1A) was 301 to 1000 nM and the IC50 (human GST-CLK1) was 301 to 1000 nM.
